Experimental data from patent US20240025884A1 (Dong-A ST Co., Ltd., priority 2022, published 2024).

Molecular target: GCN2 (Homo sapiens (Human), UniProt Q9P2K8)
Test: GCN2 Biochemical Assay (TR-FRET, GFP-eIF2S1 substrate phosphorylation)
Conditions: read-out: IC50 (GCN2 Inhibitory Activity)
Procedure, shortened: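 TR-FRET readout (Ex 340, Em 490/520 nm) after 2–3 h with Tb-labelled phospho-eIF2S1 antibody in stop mix, following a 70 min room-temperature kinase step. Reaction: in-house GCN2, GFP-eIF2S1, ATP, tRNA in Tris pH 7.5 (2× stocks 1.6 nM, 50 nM, 0.2 mM); compounds tested at 10 concentrations, with a phospho-substrate artifact counter-plate.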

GCN2, sequence (Q9P2K8 whole entry): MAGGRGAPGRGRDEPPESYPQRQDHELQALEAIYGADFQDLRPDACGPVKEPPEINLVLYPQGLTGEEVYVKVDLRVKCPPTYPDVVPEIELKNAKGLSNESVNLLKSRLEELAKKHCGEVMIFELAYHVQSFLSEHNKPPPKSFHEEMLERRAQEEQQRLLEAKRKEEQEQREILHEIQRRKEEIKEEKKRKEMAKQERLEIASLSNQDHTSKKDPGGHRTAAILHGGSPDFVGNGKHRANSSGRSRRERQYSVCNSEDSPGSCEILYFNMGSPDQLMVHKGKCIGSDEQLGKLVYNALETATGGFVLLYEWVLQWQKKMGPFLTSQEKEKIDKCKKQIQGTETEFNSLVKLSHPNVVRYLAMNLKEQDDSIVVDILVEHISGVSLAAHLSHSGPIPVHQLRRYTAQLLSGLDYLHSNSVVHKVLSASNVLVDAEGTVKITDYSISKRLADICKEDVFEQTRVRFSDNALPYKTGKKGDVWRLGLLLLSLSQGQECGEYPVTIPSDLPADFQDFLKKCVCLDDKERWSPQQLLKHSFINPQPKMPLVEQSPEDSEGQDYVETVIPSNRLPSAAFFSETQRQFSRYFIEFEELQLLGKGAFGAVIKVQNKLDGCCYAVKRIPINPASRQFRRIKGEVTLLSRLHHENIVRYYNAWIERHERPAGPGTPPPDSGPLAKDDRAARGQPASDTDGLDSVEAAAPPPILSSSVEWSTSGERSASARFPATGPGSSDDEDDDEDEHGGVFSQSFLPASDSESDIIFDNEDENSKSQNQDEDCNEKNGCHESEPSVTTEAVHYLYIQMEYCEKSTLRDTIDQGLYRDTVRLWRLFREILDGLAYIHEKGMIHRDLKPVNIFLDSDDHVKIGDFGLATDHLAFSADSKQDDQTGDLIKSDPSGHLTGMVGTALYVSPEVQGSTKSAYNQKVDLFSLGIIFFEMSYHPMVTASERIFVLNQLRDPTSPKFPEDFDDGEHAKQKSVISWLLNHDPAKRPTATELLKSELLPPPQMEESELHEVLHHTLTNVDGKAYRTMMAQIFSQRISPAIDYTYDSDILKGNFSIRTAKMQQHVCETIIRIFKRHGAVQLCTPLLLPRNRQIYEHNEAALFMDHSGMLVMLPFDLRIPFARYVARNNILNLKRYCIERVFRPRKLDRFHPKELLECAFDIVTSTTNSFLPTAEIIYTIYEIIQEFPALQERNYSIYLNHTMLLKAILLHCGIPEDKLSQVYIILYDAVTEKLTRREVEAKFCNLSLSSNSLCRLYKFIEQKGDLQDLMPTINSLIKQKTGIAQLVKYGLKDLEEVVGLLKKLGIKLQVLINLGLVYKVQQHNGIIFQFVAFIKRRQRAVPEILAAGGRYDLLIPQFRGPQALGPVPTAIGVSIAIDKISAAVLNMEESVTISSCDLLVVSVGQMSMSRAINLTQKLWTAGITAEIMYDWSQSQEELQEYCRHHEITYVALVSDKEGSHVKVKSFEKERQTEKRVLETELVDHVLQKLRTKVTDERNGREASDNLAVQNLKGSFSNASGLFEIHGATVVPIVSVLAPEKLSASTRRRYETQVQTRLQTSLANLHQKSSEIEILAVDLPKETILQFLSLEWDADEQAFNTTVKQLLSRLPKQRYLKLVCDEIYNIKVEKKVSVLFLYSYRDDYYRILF

IC50 | Structure (SMILES)
< 10 nM | Cc1cnc(Nc2cc(C)n(C)n2)nc1-c1c[nH]c2c(N3Cc4c(-c5cncc(F)c5)ccc(F)c4C3=O)cccc12 [Example 484, 2-(3-(2-((1,5-dimethyl-1H-pyrazol-3-yl)amino)-5-methylpyrimidin-4-yl)-1H-indol-7-yl)-7-fluoro-4-(5-fluoropyridin-3-yl)isoindolin-1-one]
< 10 nM | Cc1cnc(Nc2cc(C)n(C)n2)nc1-c1c[nH]c2c(N3Cc4c(-c5ccnc(F)c5)ccc(F)c4C3=O)cccc12 [Example 485, 2-(3-(2-((1,5-dimethyl-1H-pyrazol-3-yl)amino)-5-methylpyrimidin-4-yl)-1H-indol-7-yl)-7-fluoro-4-(2-fluoropyridin-4-yl)isoindolin-1-one]
< 10 nM | Cc1cncc(-c2ccc(F)c3c2CN(c2cccc4c(-c5nc(Nc6cc(C)n(C)n6)ncc5C)c[nH]c24)C3=O)c1 [Example 486, 2-(3-(2-((1,5-dimethyl-1H-pyrazol-3-yl)amino)-5-methylpyrimidin-4-yl)-1H-indol-7-yl)-7-fluoro-4-(5-methylpyridin-3-yl)isoindolin-1-one]
< 10 nM | Cc1cnccc1-c1ccc(F)c2c1CN(c1cccc3c(-c4nc(Nc5cc(C)n(C)n5)ncc4C)c[nH]c13)C2=O [Example 487, 2-(3-(2-((1,5-dimethyl-1H-pyrazol-3-yl)amino)-5-methylpyrimidin-4-yl)-1H-indol-7-yl)-7-fluoro-4-(3-methylpyridin-4-yl)isoindolin-1-one]
< 10 nM | Cc1cc(-c2ccc(F)c3c2CN(c2cccc4c(-c5nc(Nc6cc(C)n(C)n6)ncc5C)c[nH]c24)C3=O)cc(C)n1 [Example 488, 2-(3-(2-((1,5-dimethyl-1H-pyrazol-3-yl)amino)-5-methylpyrimidin-4-yl)-1H-indol-7-yl)-4-(2,6-dimethylpyridin-4-yl)-7-fluoroisoindolin-1-one]
< 10 nM | Cc1cnc(Nc2cc(C)n(C)n2)nc1-c1c[nH]c2c(N3Cc4c(-c5ccncc5)ccc([N+](=O)[O-])c4C3=O)cccc12 [Example 489, 2-(3-(2-((1,5-dimethyl-1H-pyrazol-3-yl)amino)-5-methylpyrimidin-4-yl)-1H-indol-7-yl)-7-nitro-4-(pyridin-4-yl)isoindolin-1-one]
10 to 100 nM | Cc1cnc(Nc2cc(C)n(C)n2)nc1-c1c[nH]c2c(N3Cc4c(-c5ccncc5)ccc(N(C)C)c4C3=O)cccc12 [Example 490, 2-(3-(2-((1,5-dimethyl-1H-pyrazol-3-yl)amino)-5-methylpyrimidin-4-yl)-1H-indol-7-yl)-7-(dimethylamino)-4-(pyridin-4-yl)isoindolin-1-one]
100 to 1000 nM | CNc1ccc(-c2ccncc2)c2c1C(=O)N(c1cccc3c(-c4nc(Nc5cc(C)n(C)n5)ncc4C)c[nH]c13)C2 [Example 491, 2-(3-(2-((1,5-dimethyl-1H-pyrazol-3-yl)amino)-5-methylpyrimidin-4-yl)-1H-indol-7-yl)-7-(methylamino)-4-(pyridin-4-yl)isoindolin-1-one]
100 to 1000 nM | Cc1cnc(Nc2cc(C)n(C)n2)nc1-c1c[nH]c2c(N3Cc4c(-c5ccccc5)ccc(I)c4C3=O)cccc12 [Example 492, 2-(3-(2-((1,5-dimethyl-1H-pyrazol-3-yl)amino)-5-methylpyrimidin-4-yl)-1H-indol-7-yl)-7-iodo-4-phenylisoindolin-1-one]
< 10 nM | Cc1cnc(Nc2cc(C)n(C)n2)nc1-c1c[nH]c2c(N3Cc4c(-c5ccccc5)ccnc4C3=O)cccc12 [Example 493, 6-(3-(2-((1,5-dimethyl-1H-pyrazol-3-yl)amino)-5-methylpyrimidin-4-yl)-1H-indol-7-yl)-4-phenyl-5,6-dihydro-7H-pyrrolo[3,4-b]pyridin-7-one]
< 10 nM | Cc1cnc(Nc2cc(C)n(C)n2)nc1-c1c[nH]c2c(N3Cc4c(-c5ccncc5)ccnc4C3=O)cccc12 [Example 494, 6-(3-(2-((1,5-dimethyl-1H-pyrazol-3-yl)amino)-5-methylpyrimidin-4-yl)-1H-indol-7-yl)-4-(pyridin-4-yl)-5,6-dihydro-7H-pyrrolo[3,4-b]pyridin-7-one]
< 10 nM | Cc1cnc(Nc2cc(C)n(C)n2)nc1-c1c[nH]c2c(N3Cc4c(-c5cccnc5)ccnc4C3=O)cccc12 [Example 495, 6-(3-(2-((1,5-dimethyl-1H-pyrazol-3-yl)amino)-5-methylpyrimidin-4-yl)-1H-indol-7-yl)-4-(pyridin-3-yl)-5,6-dihydro-7H-pyrrolo[3,4-b]pyridin-7-one]
< 10 nM | Cc1cnc(Nc2cc(C)n(C)n2)nc1-c1c[nH]c2c(N3Cc4c(C5=CCNCC5)ccnc4C3=O)cccc12 [Example 496, 6-(3-(2-((1,5-dimethyl-1H-pyrazol-3-yl)amino)-5-methylpyrimidin-4-yl)-1H-indol-7-yl)-4-(1,2,3,6-tetrahydropyridin-4-yl)-5,6-dihydro-7H-pyrrolo[3,4-b]pyridin-7-one]
< 10 nM | Cc1cnc(Nc2cc(C)n(C)n2)nc1-c1c[nH]c2c(N3Cc4cc(-c5ccncc5)cnc4C3=O)cccc12 [Example 497, 6-(3-(2-((1,5-dimethyl-1H-pyrazol-3-yl)amino)-5-methylpyrimidin-4-yl)-1H-indol-7-yl)-3-(pyridin-4-yl)-5,6-dihydro-7H-pyrrolo[3,4-b]pyridin-7-one]
< 10 nM | Cc1cnc(Nc2cc(C)n(C)n2)nc1-c1c[nH]c2c(N3Cc4cc(C5=CCNCC5)cnc4C3=O)cccc12 [Example 498, 6-(3-(2-((1,5-dimethyl-1H-pyrazol-3-yl)amino)-5-methylpyrimidin-4-yl)-1H-indol-7-yl)-3-(1,2,3,6-tetrahydropyridin-4-yl)-5,6-dihydro-7H-pyrrolo[3,4-b]pyridin-7-one]
< 10 nM | Cc1cnc(Nc2cc(C)n(C)n2)nc1-c1c[nH]c2c(N3Cc4c(cncc4C4=CCNCC4)C3=O)cccc12 [Example 499, 2-(3-(2-((1,5-dimethyl-1H-pyrazol-3-yl)amino)-5-methylpyrimidin-4-yl)-1H-indol-7-yl)-7-(1,2,3,6-tetrahydropyridin-4-yl)-1,2-dihydro-3H-pyrrolo[3,4-c]pyridin-3-one]
< 10 nM | Cc1cnc(Nc2cc(C)n(C)n2)nc1-c1c[nH]c2c(N3Cc4c(cncc4-c4ccncc4)C3=O)cccc12 [Example 500, 2-(3-(2-((1,5-dimethyl-1H-pyrazol-3-yl)amino)-5-methylpyrimidin-4-yl)-1H-indol-7-yl)-7-(pyridin-4-yl)-1,2-dihydro-3H-pyrrolo[3,4-c]pyridin-3-one]
< 10 nM | Cc1cnc(Nc2cc(C)n(C)n2)nc1-c1c[nH]c2c(N3Cc4c(ccnc4-c4ccncc4)C3=O)cccc12 [Example 501, 2-(3-(2-((1,5-dimethyl-1H-pyrazol-3-yl)amino)-5-methylpyrimidin-4-yl)-1H-indol-7-yl)-4-(pyridin-4-yl)-2,3-dihydro-1H-pyrrolo[3,4-c]pyridin-1-one]
< 10 nM | Cc1cc(-c2nccc3c2CN(c2cccc4c(-c5nc(Nc6cc(C)n(C)n6)ncc5C)c[nH]c24)C3=O)ccn1 [Example 502, 2-(3-(2-((1,5-dimethyl-1H-pyrazol-3-yl)amino)-5-methylpyrimidin-4-yl)-1H-indol-7-yl)-4-(2-methylpyridin-4-yl)-2,3-dihydro-1H-pyrrolo[3,4-c]pyridin-1-one]
< 10 nM | Cc1cnc(Nc2cc(C)n(C)n2)nc1-c1c[nH]c2c(N3Cc4c(ccnc4-c4cncc(F)c4)C3=O)cccc12 [Example 503, 2-(3-(2-((1,5-dimethyl-1H-pyrazol-3-yl)amino)-5-methylpyrimidin-4-yl)-1H-indol-7-yl)-4-(5-fluoropyridin-3-yl)-2,3-dihydro-1H-pyrrolo[3,4-c]pyridin-1-one]
< 10 nM | Cc1cnc(Nc2cc(C)n(C)n2)nc1-c1c[nH]c2c(N3Cc4c(ccnc4-c4ccnc(F)c4)C3=O)cccc12 [Example 504, 2-(3-(2-((1,5-dimethyl-1H-pyrazol-3-yl)amino)-5-methylpyrimidin-4-yl)-1H-indol-7-yl)-4-(2-fluoropyridin-4-yl)-2,3-dihydro-1H-pyrrolo[3,4-c]pyridin-1-one]
< 10 nM | Cc1cncc(-c2nccc3c2CN(c2cccc4c(-c5nc(Nc6cc(C)n(C)n6)ncc5C)c[nH]c24)C3=O)c1 [Example 505, 2-(3-(2-((1,5-dimethyl-1H-pyrazol-3-yl)amino)-5-methylpyrimidin-4-yl)-1H-indol-7-yl)-4-(5-methylpyridin-3-yl)-2,3-dihydro-1H-pyrrolo[3,4-c]pyridin-1-one]
< 10 nM | Cc1cnccc1-c1nccc2c1CN(c1cccc3c(-c4nc(Nc5cc(C)n(C)n5)ncc4C)c[nH]c13)C2=O [Example 506, 2-(3-(2-((1,5-dimethyl-1H-pyrazol-3-yl)amino)-5-methylpyrimidin-4-yl)-1H-indol-7-yl)-4-(3-methylpyridin-4-yl)-2,3-dihydro-1H-pyrrolo[3,4-c]pyridin-1-one]
